Columns and labels:
[1] = Antiproliferative effect on MT-4 cells; format: cell-based, human; settings: human, mt-4 cells
Description: (§1) Under in vitro conditions, an infection of T lymphocytes with HIV leads to the death of the cells within a few days. The MT-4 cells, described by Harada et al. in Science 229, 563 (1985), were used in a test system (Matthes et al., Biochem. Biophys., Res. Commun. 153, 825 (1988)), to test to what extent the inventive nucleosides can nullify the cytocidal effect of HIV-1 (HTLV IIIa) on this T cell line. In addition, the antiproliferative effectiveness of the nucleosides investigated is listed and, moreover, as the concentration which decreases the proliferation of the MT-4 cells by 50% (CD50). […]
(§2) Comparison of the antiviral and antiproliferative effectiveness
(§3) of nucleoside analogies using MT-4 cells

HIV-1 (HTLV IIIa) = test: Inhibition of the cytopathic effect of HIV on T lymphocyte cells (protection of MT-4 cells); format: cell-based; settings: for EC50: Human immunodeficiency virus 1, MT4, 50% protection of MT-4 cells against HIV-1 (HTLV IIIa), read-out: 50% antiviral dose (ED50)
Description: 2. Inhibition of the cytopathic effect of HIV on T lymphocyte cells
Under in vitro conditions, an infection of T lymphocytes with HIV leads to the death of the cells within a few days. The MT-4 cells, described by Harada et al. in Science 229, 563 (1985), were used in a test system (Matthes et al., Biochem. Biophys., Res. Commun. 153, 825 (1988)), to test to what extent the inventive nucleosides can nullify the cytocidal effect of HIV-1 (HTLV IIIa) on this T cell line. In addition, the antiproliferative effectiveness of the nucleosides investigated is listed and, moreover, as the concentration which decreases the proliferation of the MT-4 cells by 50% (CD50).
as §2, §3

[2] = In vitro cytotoxicity to cell cultures, Molt-4; format: cell-based; settings: human, molt-4 cells; read-out: CD50, antiproliferative effect
Description: (§4) 3. In vitro cytotoxicity of 3'-fluoro-4-thiothymidine to cell cultures
(§5) A series of further human cell lines was included in the investigation of the antiproliferative effect of 3'-fluoro-4-thiothymidine and the following CD50 were found: […]

[3] = In vitro cytotoxicity to cell cultures, H-8; format: cell-based; settings: human, h-8 cells; read-out: CD50, antiproliferative effect
Description: as §4, §5

MT-4 cells = test: Antiproliferative effect on MT-4 cells; format: cell-based, human
Description: as §1, §2, §3

[4] = test system: colony-forming cells of the bone marrow of the mouse (GM-CFU); test: Growth inhibition of colony-forming cells of the bone marrow (GM-CFU); format: cell-based; settings: concentrations up to 100 micromoles/L
[5] = In vitro cytotoxicity to cell cultures, HELFI; format: cell-based; settings: human, helfi lung fibroblasts; read-out: CD50, antiproliferative effect
Description: as §4, §5

[6] = In vitro cytotoxicity to cell cultures, REH; format: cell-based; settings: human, reh cells; read-out: CD50, antiproliferative effect
Description: as §4, §5

AIDS patients = settings: cited from earlier work
DNA polymerase = molecular target: T1, DNA polymerase (Homo sapiens, UniProt P09884); test: Inhibition of cellular DNA polymerase (enzyme mainly responsible for cellular replication); format: biochemical; settings: read-out: ID50 (concentration inhibiting the polymerase to the extent of 50%), DNA polymerase
T1 sequence (P09884 1-1462): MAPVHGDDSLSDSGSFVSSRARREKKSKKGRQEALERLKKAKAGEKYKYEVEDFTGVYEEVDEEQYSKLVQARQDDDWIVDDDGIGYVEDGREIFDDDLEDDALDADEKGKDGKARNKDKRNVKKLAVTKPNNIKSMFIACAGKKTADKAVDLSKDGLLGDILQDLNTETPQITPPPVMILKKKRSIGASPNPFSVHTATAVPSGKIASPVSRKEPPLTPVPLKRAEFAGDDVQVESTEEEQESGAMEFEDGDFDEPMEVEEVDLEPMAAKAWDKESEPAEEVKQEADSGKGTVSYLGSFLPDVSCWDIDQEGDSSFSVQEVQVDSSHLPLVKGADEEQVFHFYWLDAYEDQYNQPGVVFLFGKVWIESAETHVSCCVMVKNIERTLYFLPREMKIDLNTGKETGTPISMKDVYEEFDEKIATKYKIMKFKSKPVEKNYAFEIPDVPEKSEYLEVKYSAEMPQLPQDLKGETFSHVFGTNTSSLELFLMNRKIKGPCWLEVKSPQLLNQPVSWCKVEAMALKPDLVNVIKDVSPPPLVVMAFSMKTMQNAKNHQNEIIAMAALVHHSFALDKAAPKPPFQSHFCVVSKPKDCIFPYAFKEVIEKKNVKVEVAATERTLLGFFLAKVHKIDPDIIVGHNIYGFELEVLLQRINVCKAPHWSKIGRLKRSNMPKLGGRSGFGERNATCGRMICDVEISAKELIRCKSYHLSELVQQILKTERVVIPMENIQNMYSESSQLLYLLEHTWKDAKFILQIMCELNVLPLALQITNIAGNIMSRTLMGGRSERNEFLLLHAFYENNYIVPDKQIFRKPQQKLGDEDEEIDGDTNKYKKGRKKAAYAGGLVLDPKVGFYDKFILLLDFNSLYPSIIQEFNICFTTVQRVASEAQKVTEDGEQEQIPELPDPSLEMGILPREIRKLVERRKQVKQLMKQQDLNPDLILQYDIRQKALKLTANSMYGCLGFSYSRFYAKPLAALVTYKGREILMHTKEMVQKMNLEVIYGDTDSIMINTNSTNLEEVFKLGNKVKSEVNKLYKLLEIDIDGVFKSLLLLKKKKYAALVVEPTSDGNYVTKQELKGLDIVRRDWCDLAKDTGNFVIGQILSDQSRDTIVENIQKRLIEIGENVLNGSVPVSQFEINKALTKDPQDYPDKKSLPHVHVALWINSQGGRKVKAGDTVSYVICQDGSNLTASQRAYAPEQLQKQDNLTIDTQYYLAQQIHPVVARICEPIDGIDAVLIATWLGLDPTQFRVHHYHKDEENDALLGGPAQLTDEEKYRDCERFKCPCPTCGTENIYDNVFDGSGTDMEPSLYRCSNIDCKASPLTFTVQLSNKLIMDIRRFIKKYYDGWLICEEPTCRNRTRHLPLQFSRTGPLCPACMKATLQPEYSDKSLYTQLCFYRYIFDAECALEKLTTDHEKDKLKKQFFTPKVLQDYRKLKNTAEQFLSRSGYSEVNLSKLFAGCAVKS
Method: (§6) For these investigations, the effect of the compound on the activity of HIV-RT as well as on the cellular DNA polymerase was determined using the methods described by Matthes et al., in Biochem. Biophys. Res. Commun. 148, 78 (1987). Different concentrations of 3'-fluoro-4-thiothymidine triphosphate were added to the enzyme preparations. The concentrations of 3'-fluoro-4-thiothymidine triphosphate, which inhibit the polymerases investigated to the extent of 50% (ID50), were determined from the inhibition curves obtained. […] Accordingly 3'-fluoro-4-thiothymidine triphosphate inhibits the HIV-RT 700 times more effectively than the cellular DNA polymerase and thus has a largely selective effect on the HIV replication.

DNA polymerase β = DNA polymerase β (Homo sapiens, UniProt P06746); test: Inhibition of DNA polymerase β (cellular DNA repair enzyme); format: biochemical; settings: read-out: ID50 (concentration inhibiting the polymerase to the extent of 50%), DNA polymerase β
Method: as §6

[7] = molecular target: T2, HIV-associated reverse transcriptase (HIV-RT) (Human immunodeficiency virus type 1 group M subtype B, UniProt P04585); test: Inhibition of the HIV-associated reverse transcriptase (HIV-RT); format: biochemical
T2 construct: HIV-associated reverse transcriptase (HIV-RT)
Method: 1. Selective inhibition of the HIV-associated reverse transcriptase (HIV-RT) by 3'-fluoro-4-thiothymidine-triphosphate
as §6

[8] = AIDS patients with Pneumocystis carinii pneumonia

Compound	CC50 [1]	EC50 (HIV-1 (HTLV IIIa))	further results
O=c1nc(NO)ccn1[C@H]1C[C@H](F)[C@@H](CO)O1 [1-(2,3-Dideoxy-3-fluoro-β-D-glycero-ribofuranosyl)-4-hydroxylamino-(1H)-pyrimidine-2-one]	100 µM	100 µM	–
Cc1cn([C@H]2C[C@H](F)[C@@H](CO)O2)c(=O)nc1NO [1-(2,3-Dideoxy-3-fluoro-β-D-ribofuranosyl)-4-hydroxylamino-5-methyl-(1H)-pyrimidine-2-one]	300 µM	100 µM	–
CSc1nc(=O)n([C@H]2C[C@H](F)[C@@H](CO)O2)cc1C [1-(2,3-Dideoxy-3-fluoro-β-D-ribofuranosyl)-4-methylmercapto-5-methyl-(1H)-pyrimidine-2-one]	> 1000 µM	> 1000 µM	–
Cc1cn([C@H]2C[C@H](F)[C@@H](CO)O2)c(=O)[nH]c1=S [1-(2,3-Dideoxy-3-fluoro-β-D-ribofuranosyl)-4-thiothymine]	480 µM	1.8 µM	CC50 [2]: ≥ 1000 µM; CC50 [3]: ≥ 800 µM; effect on cell proliferation (in words) (MT-4 cells; MT-4 cells): hardly any effect on the cell proliferation; cytotoxicity (summary in words) (MT-4 cells; summary of the cell tests): very slight cytotoxicity; growth-inhibiting effect on colony-forming cells of the bone marrow [4]: no growth-inhibiting effect whatsoever; inhibition of HIV replication (summary in words) (HIV-1 (HTLV IIIa)): effective inhibitor of HIV replication; CC50 [5]: 700 µM; CC50 [6]: 500 µM
O=c1[nH]c(=S)ccn1[C@H]1C[C@H](F)[C@@H](CO)O1 [1-(2,3-Dideoxy-3-fluoro-β-D-ribofuranosyl)-4-thiouracil]	150 µM	15 µM	–
Cc1cn([C@H]2C=C[C@@H](CO)O2)c(=O)[nH]c1=S [1-(2,3-Dideoxy-β-D-glycero-pent-2-enofuranosyl)-4-thiothymine]	350 µM	0.85 µM	–
CSc1ccn([C@H]2C[C@H](F)[C@@H](CO)O2)c(=O)n1 [1-(2,3-dideoxy-3-fluoro-β-D-ribofuranosyl)-4-methylmercapto-pyrimidine-2-one]	50 µM	12 µM	–
Cc1cnc(=O)n([C@H]2C[C@H](F)[C@@H](CO)O2)c1 [1-(2,3-dideoxy-3-fluoro-β-D-ribofuranosyl)-5-methyl-pyrimidine-2-one]	> 400 µM	12 µM	–
O=c1ncccn1[C@H]1C[C@H](F)[C@@H](CO)O1 [1-(2,3-dideoxy-3-fluoro-β-D-ribofuranosyl)-pyrimidine-2-one]	> 800 µM	30 µM	–
Cc1cn([C@H]2C[C@H](N=[N+]=[N-])[C@@H](CO)O2)c(=O)[nH]c1=O [3'-azidothymidine]	–	–	clinical and neurological findings (in words) (AIDS patients; [8]): improvements in clinical and neurological findings; immunological functions (in words) (AIDS patients; [8]): occasional restoration of certain immunological functions; life prolonging effects (in words) (AIDS patients; [8]): unambiguous life prolonging effects; patients in whom toxic side effects on the bone marrow make blood transfusions necessary (AIDS patients; AIDS patients): about 50%
Cc1cn([C@H]2C[C@H](F)[C@@H](COP(=O)(O)OP(=O)(O)OP(=O)(O)O)O2)c(=O)[nH]c1=S [3'-fluoro-4-thiothymidine triphosphate, 1-(2,3-Dideoxy-3-fluoro-β-D-ribofuranosyl)-4-thiothymine-5'-triphosphate]	–	–	IC50 (DNA polymerase): 140 µM; IC50 (DNA polymerase β): 7 µM; inhibits the HIV-RT times more effectively than the cellular DNA polymerase ([7]; HIV-RT versus cellular DNA polymerase): 700 times; IC50 ([7]; HIV-RT, read-out: ID50 (concentration inhibiting the polymerase to the extent of 50%), HIV-RT): 0.3 µM
Cc1ccc(C(=O)Nc2ccc(S(=O)(=O)O)c3cc(S(=O)(=O)O)cc(S(=O)(=O)O)c23)cc1NC(=O)c1cccc(NC(=O)Nc2cccc(C(=O)Nc3cc(C(=O)Nc4ccc(S(=O)(=O)O)c5cc(S(=O)(=O)O)cc(S(=O)(=O)O)c45)ccc3C)c2)c1 [Suranim]	–	–	tolerance and effectiveness (in words) (AIDS patients; clinically tested): have not yet attained the necessary tolerance and the hoped-for effectiveness
